The test system of one test is Porcine Ovarian Granulosa Cells. Kind of test: Test Example 7: inhibition of SNP-induced apoptosis of undifferentiated POGC. The class given is cell-based. Conditions: Sus scrofa; for complete inhibition of apoptosis; SNP 0.5 mM; cells observed after 48 hours; read-out: Minimum effective concentration.
In the case of `CN1C(=O)C(c2c[nH]c3ccccc23)=C(c2c[nH]c3ccccc23)C1O` (stereo not shown) [Compound 16], the minimal effective concentration was 5 µM.

As for `O=C1C(c2c[nH]c3ccccc23)=C(c2c[nH]c3ccccc23)C(=O)N1O` [Compound 12], the minimal effective concentration was 15 µM.

`CN1C(=O)C(c2c[nH]c3ccccc23)=C(c2c[nH]c3ccc(Cl)cc23)C1=O` [Compound 24]: the minimal effective concentration amounted to 3 µM.

Take `N=C(N)SCCCn1cc(C2=C(c3c[nH]c4ccccc34)C(=O)NC2=O)c2ccccc21` [Compound 27]: the minimal effective concentration is 1 µM.

Regarding `CN1C(=O)C(c2c[nH]c3ccccc23)=C(c2cn(C(=O)OC(C)(C)C)c3ccccc23)C1=O` [Compound 22], the minimal effective concentration was 5 µM.

As to `CN1C(=O)C(c2cn(C(=O)OC(C)(C)C)c3ccccc23)=C(c2cn(C(=O)OC(C)(C)C)c3ccccc23)C1=O` [Compound 23], the minimal effective concentration was found to be 5 µM.

Take `O=C1NC(=O)C(c2c[nH]c3ccccc23)=C1c1c[nH]c2ccccc12` [Compound 13]: the minimal effective concentration is 5 µM.

In the case of `Cn1cc(C2=C(c3cn(CCCN)c4ccccc34)C(=O)NC2=O)c2ccccc21` [Compound 26], the minimal effective concentration was found to be 1 µM.

On to `CN1C(=O)C(c2c[nH]c3ccccc23)C(c2c[nH]c3ccccc23)C1=O` (stereo not shown) [Compound 30], for which the minimal effective concentration came to 10 µM.

As for `CN1C(=O)C(c2c[nH]c3ccccc23)=C(c2cn(CCCNC(=O)c3ccccc3)c3ccccc23)C1=O` [Compound 21], the minimal effective concentration was found to be 7 µM.

With `CCCN1C(=O)C(c2c[nH]c3ccccc23)=C(c2c[nH]c3ccccc23)C1=O` [Compound 15], the minimal effective concentration amounted to 3 µM.

The same test, now with this note: Sus scrofa; for complete inhibition of apoptosis; SNP 0.5 mM; judged at 18 hours after SNP treatment; read-out: Minimum effective concentration.
For the molecule `Cc1ccc2[nH]cc(C3=C(c4c[nH]c5ccc(C)cc45)C(=O)N(C)C3=O)c2c1` [Compound 40], the minimal effective concentration stood at 1 µM.

Take `O=C1C(c2c[nH]c3ccccc23)=C(c2c[nH]c3ccccc23)C(=O)N1Cc1ccccc1` [Compound 49]: the minimal effective concentration is 1 µM.

Consider `CN1C(=O)C(c2c[nH]c3ccccc23)=C(c2cn(C)c3ccccc23)C1=O` [Compound 35], for which the minimal effective concentration is 10 µM.

In the case of `Cc1cccc2c(C3=C(c4c[nH]c5ccccc45)C(=O)N(C)C3=O)c[nH]c12` [Compound 39], the minimal effective concentration was 3 µM.

Consider `CN1C(=O)C(c2cn(C)c3ccccc23)=C(c2cn(C)c3ccccc23)C1=O` [Compound 36], for which the minimal effective concentration amounted to 10 µM.

`Cc1[nH]c2ccccc2c1C1=C(c2c[nH]c3ccccc23)C(=O)N(C)C1=O` [Compound 46]: the minimal effective concentration was determined as 10 µM.

On to `O=C1C(c2c[nH]c3ccccc23)=C(c2c[nH]c3ccccc23)C(=O)N1c1ccccc1` [Compound 48], for which the minimal effective concentration is 1 µM.

With `COc1cccc2[nH]cc(C3=C(c4c[nH]c5cccc(OC)c45)C(=O)N(C)C3=O)c12` [Compound 45], the minimal effective concentration amounted to 3 µM.

Take `CN1C(=O)C(c2c[nH]c3ccccc23)C(c2cn(CCCN)c3ccccc23)C1=O` (stereo not shown) [Compound 33]: the minimal effective concentration turned out to be 10 µM.

On to `CN1CCCC1CCn1cc(C2=C(c3c[nH]c4ccccc34)C(=O)NC2=O)c2ccccc21` (stereo not shown) [Compound 28], for which the minimal effective concentration was found to be 3 µM.

As to `CN1C(=O)C(c2c[nH]c3ccc(F)cc23)=C(c2c[nH]c3ccc(F)cc23)C1=O` [Compound 41], the minimal effective concentration stood at 10 µM.

Take `c1ccc(N2CC(c3c[nH]c4ccccc34)C(c3c[nH]c4ccccc34)C2)cc1` (stereo not shown) [Compound 34]: the minimal effective concentration is 0.3 µM.

In the case of `CN(C)CCCn1cc(C2=C(c3cn(CCCN(C)C)c4ccccc34)C(=O)N(C)C2=O)c2ccccc21` [Compound 37], the minimal effective concentration is 10 µM.

On to `COc1ccc2[nH]cc(C3=C(c4c[nH]c5ccc(OC)cc45)C(=O)N(C)C3=O)c2c1` [Compound 44], for which the minimal effective concentration was found to be 1 µM.

Regarding `CN1C(=O)C(c2c[nH]c3ccccc23)=C(c2c[nH]c3ccc(Cl)cc23)C1=O` [Compound 43], the minimal effective concentration was determined as 3 µM.

For `Cc1[nH]c2ccccc2c1C1=C(c2c(C)[nH]c3ccccc23)C(=O)N(C)C1=O` [Compound 47], the minimal effective concentration was 10 µM.

As to `CN(C)CC1CCn2c(c(C3=C(c4cn(C)c5ccccc45)C(=O)NC3=O)c3ccccc32)C1` (stereo not shown) [Compound 29], the minimal effective concentration was found to be 1 µM.

On to `Cc1ccc2c(C3=C(c4c[nH]c5cc(C)ccc45)C(=O)N(C)C3=O)c[nH]c2c1` [Compound 38], for which the minimal effective concentration is 0.3 µM.

For the molecule `CN1C(=O)C(c2c[nH]c3ccc(Br)cc23)=C(c2c[nH]c3ccc(Br)cc23)C1=O` [Compound 42], the minimal effective concentration came out at 1 µM.

Staying with this test, now noted: Sus scrofa; for complete inhibition of apoptosis; SNP 0.5 mM; judged at 30 hours after SNP treatment; read-out: Minimum effective concentration.
As for `O=C1OC(=O)C(c2c[nH]c3ccccc23)=C1c1c[nH]c2ccccc12` [Compound 11], the minimal effective concentration came out at 10 µM.

`CCN(CC)c1ccc2c(-c3ccc(S(=O)(=O)NCCCn4cc(C5=C(c6cn(C)c7ccccc67)C(=O)NC5=O)c5ccccc54)cc3S(=O)(=O)[O-])c3ccc(=[N+](CC)CC)cc-3oc2c1` [Compound 31]: the minimal effective concentration came to 3 µM.

`NCCCn1cc(C2=C(c3c[nH]c4ccccc34)C(=O)NC2=O)c2ccccc21` [Compound 17]: the minimal effective concentration was 3 µM.

The test system of the next test is Porcine ovarian granulosa cells (POGC). The experiment in a line: Test Example 1: inhibition of SNP-induced apoptosis of porcine ovarian granulosa cells. The class given is cell-based. Conditions: Sus scrofa; for complete inhibition of apoptosis; SNP 0.5 mM; cells observed after 48 hours; read-out: Minimum effective concentration. The text has this: Porcine ovarian granulosa cells (POGC) were isolated from porcine ovaries and cultured following to a known method (Endocrinology, Vol. 136, p. 3470, 1995). Namely, porcine ovaries were rinsed with PBS buffer, and POGC were collected by aspiration from antral follicles with a syringe. Cell fraction was recovered as a precipitate by centrifugation of the suspension. The operation of suspending the cell fraction into PBS buffer and subjecting the resulting suspension to centrifugation was repeated three times to wash the cells. The POGC obtained as a precipitate were suspended again into a culture medium (DMEM containing 10% fetal bovine serum) and cell clumps were disrupted by pipetting. The cell suspension was passed through a mesh to remove contaminating tissue fragments, and then pipetted in 24-well plates for cell culture. The cell suspension was cultured for 2 days in a CO2 incubator according to a conventional procedure (37°C, 5% CO2). Then, the medium was refreshed to remove floating cells and the culture was continued for further 2 to 3 days until the cells reached subconfluency (0.7 to 2 × 10^5 cell/well). After the attaching cells were washed with serum-free medium, they were cultured in a serum-free DMEM (containing 5 µg/mL of transferrin, and 40 ng/mL of hydrocortisone, 4 mg/mL of bovine serum albumin (BSA), 100 nM androstendione).
The cell death was also confirmed by MTT assay. […] The results are shown in Table 1 where a minimum effective concentration of each compound for complete inhibition of apoptosis is described.
Turning to `Cc1ccc2c(c1)c(C1=C(Br)C(=O)N(C)C1=O)cn2C(=O)OC(C)(C)C` [Compound 6], the minimal effective concentration turned out to be 3 µM.

As to `Cc1cccc2c(C3=C(Br)C(=O)N(C)C3=O)cn(C(=O)OC(C)(C)C)c12` [Compound 7], the minimal effective concentration was 7 µM.

On to `Cc1cccc2c(C3=C(Br)C(=O)N(C)C3=O)c[nH]c12` [Compound 4], for which the minimal effective concentration was 10 µM.

`Cc1ccc2[nH]cc(C3=C(Br)C(=O)N(C)C3=O)c2c1` [Compound 3]: the minimal effective concentration turned out to be 3 µM.

Take `CN1C(=O)C(Br)=C(c2cn(C(=O)OC(C)(C)C)c3ccc(Cl)cc23)C1=O` [Compound 8]: the minimal effective concentration was determined as 7 µM.

As for `CN1C(=O)C(Br)=C(c2c[nH]c3ccc(Cl)cc23)C1=O` [Compound 5], the minimal effective concentration was 15 µM.

`CN1C(=O)C(Br)=C(c2cn(C(=O)OC(C)(C)C)c3ccccc23)C1=O` [Compound 2]: the minimal effective concentration was found to be 10 µM.

Staying with this test, now noted: Sus scrofa; for complete inhibition of apoptosis; SNP 0.5 mM; judged at 18 hours after SNP treatment; read-out: Minimum effective concentration.
As for `CN1C(=O)C(Br)=C(c2cn(C)c3ccccc23)C1=O` [Compound 9, 2-bromo-3-(1-methyl-1H-indol-3-yl)-N-methylmaleimide], the minimal effective concentration is 15 µM.

Consider `CN1C(=O)C(Br)=C(c2c[nH]c3ccccc23)C1=O` [Compound 1, 2-bromo-3-(1H-indol-3-yl)-N-methylmaleimide], for which the minimal effective concentration was 15 µM.

The same test, now with this note: Sus scrofa; for complete inhibition of apoptosis; SNP 0.5 mM; judged at 35 hours after SNP treatment; read-out: Minimum effective concentration.
Consider `CCCCCCCn1cc(C2=C(Br)C(=O)N(C)C2=O)c2ccccc21` [Compound 10], for which the minimal effective concentration is 3 µM.

For another test, the system named is 4B2 cells. Kind of test: Test Example 9: SNP-induced apoptosis of 4B2 granulosa cell line. It counts as cell-based. To be noted: Mus musculus; 10 µM added prior to SNP (0.5 mM); observation after 24 hours; read-out: cells alive. The method, then:
Mouse granulosa cells were transfected with SV40 T antigen and cDNA of steroidogenic factor-1 (SF-1/Ad4BP) to establish a cell line, named 4B2. The cell secretes progesterone in response to protein kinase-A. The 4B2 cells were cultured in 48-well culture plates until subconfluency in DMEM containing 10% fetal bovine serum in a CO2 incubator according to a conventional manner. After the medium was switched to DMEM containing 2% fetal bovine serum, SNP (0.5 mM) was added thereto. […] Then, prior to the addition of SNP, Test Compound 13, 14, 17, 20, 24 or 25 (10 µM each) was added to the present medium and observations on cells were made after 24 hours.
In the case of `CN1C(=O)C(c2c[nH]c3ccccc23)=C(c2c[nH]c3ccc(Cl)cc23)C1=O` [Compound 24], the viability at 10 µM was more than 95%.

Consider `O=C1NC(=O)C(c2c[nH]c3ccccc23)=C1c1c[nH]c2ccccc12` [Compound 13], for which the viability at 10 µM is more than 95%.

As to `NCCCn1cc(C2=C(c3c[nH]c4ccccc34)C(=O)NC2=O)c2ccccc21` [Compound 17], the viability at 10 µM is more than 95%.

(Values after patent EP1057484A1, “CELL DEATH INHIBITORS” (priority 1998, dated 1999).)
